Results: PMC7195552 (Journal of Burn Care & Research: Official Publication of …, 2020)
Where two headings read alike, the source gives them in different places.

Assays:
[1] = Plasma pharmacokinetics of daptomycin in patients with severe burn injuries (LC-MS/MS, DAS 2.0); format: in vivo, human; details: for half-life: read-out: t(h)½ (converted)
Procedure: Multiple-dose medication treatment means that daptomycin was administered to burn injury patients as one injection every day of either the standard dose or a high dose. […] During intravenous infusion, vigorous agitation or shaking during drug dissolution was not permitted, thus preventing the formation of gas bubbles. […] The samples were centrifuged and stored at −80°C until required for analysis. PK evaluation was performed by measuring the daptomycin levels in blood samples, using liquid chromatography–mass spectrometry/mass spectrometry (LC-MS/MS) (Waters Micromass Quattro Micro API LC-MS/MS). Chromatographic separation was performed at 35°C using a RP-C18 (Welch Ultimate, 3.0 mm × 150 mm) analytical column. […] PK parameters were calculated using DAS 2.0. […] The maximum plasma concentration (Cmax) and the time at which it occurred (Tmax) were determined directly from the measured plasma concentration–time without interpolation. […] The total body clearance (CL) was obtained from dose/AUC0–∞. The volume of distribution (Vd) was calculated using the equation CL/Ke.

[2] = Hepatorenal function index of patients after daptomycin medication; details: 12 mg/kg/d, average ± SD n = 7, patients received supplemental plasma albumin
Procedure: All statistical analyses were conducted using SAS™ 9.3 software (Cary, NC) and a P value <.05 was considered to be statistically significant.

[3] = Creatine phosphokinase levels and adverse events during daptomycin treatment; format: in vivo, human
Excerpt: The level returned to a normal value without discontinuation of daptomycin treatment. There were no significant CPK differences in the indicated time points between the groups (Table 8).

[4] = patient 1, 12 mg/kg/d iv, multiple dose
[5] = patient 1, 12 mg/kg/d iv, single dose
[6] = patient 2, 12 mg/kg/d iv, multiple dose
[7] = patient 2, 12 mg/kg/d iv, single dose
[8] = patient 3, 12 mg/kg/d iv, multiple dose
[9] = patient 3, 12 mg/kg/d iv, single dose
[10] = patient 4, 12 mg/kg/d iv, multiple dose
[11] = patient 4, 12 mg/kg/d iv, single dose
[12] = patient 5, 12 mg/kg/d iv, multiple dose
[13] = patient 5, 12 mg/kg/d iv, single dose
[14] = patient 6, 12 mg/kg/d iv, multiple dose
[15] = patient 6, 12 mg/kg/d iv, single dose
[16] = patient 7, 12 mg/kg/d iv, multiple dose
[17] = patient 7, 12 mg/kg/d iv, single dose
[18] = patient 8, 6 mg/kg/d iv, multiple dose
[19] = patient 8, 6 mg/kg/d iv, single dose
[20] = patient 9, 6 mg/kg/d iv, multiple dose
[21] = patient 9, 6 mg/kg/d iv, single dose
[22] = patient 10, 6 mg/kg/d iv, multiple dose
[23] = patient 10, 6 mg/kg/d iv, single dose

## CCCCCCCCCC(=O)N[C@@H](Cc1c[nH]c2ccccc12)C(=O)N[C@H](CC(N)=O)C(=O)N[C@@H](CC(=O)O)C(=O)N[C@@H]1C(=O)NCC(=O)N[C@@H](CCCN)C(=O)N[C@@H](CC(=O)O)C(=O)N[C@H](C)C(=O)N[C@@H](CC(=O)O)C(=O)NCC(=O)N[C@H](CO)C(=O)N[C@@H]([C@H](C)CC(=O)O)C(=O)N[C@@H](CC(=O)c2ccccc2N)C(=O)O[C@@H]1C [daptomycin]
[1]; 6 mg/kg/d iv, multiple dose (day 6), average ± SD n = 3, SD
  CL: 0.412 ± 0.197 mL/min/kg
[1]; 12 mg/kg/d iv, multiple dose (day 6), average ± SD n = 7, SD
  V d: 0.24 ± 0.11 L/kg
[1]; human, in vivo, iv, 6 mg/kg
  Tmax: ~2 h
[1]; human, in vivo, iv, 6 mg/kg/d, 6 mg/kg/d iv, multiple dose (day 6), average ± SD n = 3, SD
  half-life: 6.47 ± 1.34 h
[1]; human, in vivo, iv, 6 mg/kg/d, 6 mg/kg/d iv, single dose, average ± SD n = 3, SD
  half-life: 5.64 ± 1 h
[1]; human, in vivo, iv, 12 mg/kg/d, 12 mg/kg/d iv, single dose, average ± SD n = 7, SD, read-out: CL (converted)
  clearance: 0.375 mL/min/kg
[1]; human, in vivo, iv, 12 mg/kg/d, 12 mg/kg/d iv, single dose, average ± SD n = 7, SD
  half-life: 7.4 ± 2.5 h
[1]; human, in vivo, iv, V d, SD
  V d: 0.24 ± 0.1 L/kg
[1]; human, in vivo, iv, SD
  V d: 0.19 ± 0.1 L/kg
  clearance: 0.403 mL/min/kg
[1]; human, in vivo, 6 mg/kg/d iv, single dose, average ± SD n = 3, SD, read-out: AUC0–24
  AUC(0-t): 255 ± 51.6 µg·h/mL
[1]; human, in vivo, 12 mg/kg/d iv, multiple dose (day 6), average ± SD n = 7, SD, read-out: CL (converted)
  clearance: 0.33 mL/min/kg
[1]; multiple doses, independent of the dose received (all patients)
  t(h)½: 8.10 ± 1.91 h
[1]; [4]
  AUC0–24: 588.2 µg·h/mL
  CL: 0.34 mL/min/kg
  V d: 0.26 L/kg
  t(h)½: 8.8 h
[1]; [5]
  AUC0–24: 486.9 µg·h/mL
  CL: 0.365 mL/min/kg
  V d: 0.26 L/kg
[1]; [6]
  AUC0–24: 679.0 µg·h/mL
  CL: 0.2945 mL/min/kg
  V d: 0.22 L/kg
  t(h)½: 8.5 h
[1]; [7]
  AUC0–24: 511.2 µg·h/mL
  CL: 0.36 mL/min/kg
  V d: 0.21 L/kg
  t(h)½: 0.5 h
[1]; [8]
  AUC0–24: 580.7 µg·h/mL
  CL: 0.3443 mL/min/kg
  V d: 0.20 L/kg
  t(h)½: 6.7 h
[1]; [9]
  AUC0–24: 426.7 µg·h/mL
  CL: 0.423 mL/min/kg
  V d: 0.25 L/kg
  t(h)½: 0.5 h
[1]; [10]
  AUC0–24: 709.6 µg·h/mL
  CL: 0.2818 mL/min/kg
  V d: 0.16 L/kg
  t(h)½: 6.6 h
[1]; [11]
  AUC0–24: 477.6 µg·h/mL
  CL: 0.388 mL/min/kg
  V d: 0.29 L/kg
  t(h)½: 0.5 h
[1]; [12]
  AUC0–24: 987.6 µg·h/mL
  CL: 0.2025 mL/min/kg
  V d: 0.10 L/kg
  t(h)½: 5.7 h
[1]; [13]
  AUC0–24: 809.9 µg·h/mL
  CL: 0.235 mL/min/kg
  V d: 0.10 L/kg
  t(h)½: 1.5 h
[1]; [14]
  AUC0–24: 489.1 µg·h/mL
  CL: 0.4088 mL/min/kg
  V d: 0.32 L/kg
  t(h)½: 9.1 h
[1]; [15]
  AUC0–24: 439.4 µg·h/mL
  CL: 0.445 mL/min/kg
  V d: 0.15 L/kg
  t(h)½: 0.5 h
[1]; [16]
  AUC0–24: 456.2 µg·h/mL
  CL: 0.4383 mL/min/kg
  V d: 0.43 L/kg
  t(h)½: 11.3 h
[1]; [17]
  AUC0–24: 399.0 µg·h/mL
  CL: 0.405 mL/min/kg
  V d: 0.41 L/kg
  t(h)½: 0.5 h
[1]; [18]
  AUC0–24: 394.7 µg·h/mL
  CL: 0.2928 mL/min/kg
  V d: 0.15 L/kg
  t(h)½: 6.093 h
[1]; [19]
  AUC0–24: 273.7 µg·h/mL
  CL: 0.3653 mL/min/kg
  V d: 0.14 L/kg
  t(h)½: 4.97 h
[1]; [20]
  AUC0–24: 249.5 µg·h/mL
  CL: 0.6387 mL/min/kg
  V d: 0.44 L/kg
  t(h)½: 7.958 h
[1]; [21]
  AUC0–24: 197.0 µg·h/mL
  CL: 0.5075 mL/min/kg
  V d: 0.27 L/kg
  t(h)½: 6.737 h
[1]; [22]
  AUC0–24: 330.3 µg·h/mL
  CL: 0.3027 mL/min/kg
  V d: 0.14 L/kg
  t(h)½: 5.349 h
[1]; [23]
  AUC0–24: 295.2 µg·h/mL
  CL: 0.3387 mL/min/kg
  V d: 0.15 L/kg
  t(h)½: 5.377 h
[2]
  Alb after daptomycin treatment (7 days): 40.5 ± 4.6 g/L
[3]; 12 mg/kg/d iv once daily, entire study period
  serious adverse events or treatment discontinuations: no serious adverse events or treatment discontinuations
[3]; patient no. 3, high-dose, day 3, returned to normal without discontinuation
  CPK adverse reaction: transient increase of CPK
[3]; whole study, 6 or 12 mg/kg/d for 7 to 14 days, 10 patients
  serious adverse events and nonserious AEs leading to discontinuation: No serious adverse events
